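These data come from cells grown in 96-well plates and exposed to compound for 48 hours at five concentrations. Here, GI50 denotes the concentration required for 50% inhibition of growth. TGI: total growth inhibition.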
Columns and labels:
Test in all cases: NCI-60 cell line screen, 48 h
[1] = system: A549 NSCLC
[2] = system: OVCAR-5 ovarian
[3] = system: SF-539 CNS
[4] = system: ACHN renal
[5] = system: LOX IMVI melanoma
[6] = system: KM12 colon
[7] = system: UO-31 renal
[8] = system: MCF7 breast
[9] = system: RXF 393 renal
[10] = system: OVCAR-3 ovarian

Structure (SMILES)	GI50 [1]	TGI [1]	GI50 [2]	TGI [2]	GI50 [3]	TGI [3]	GI50 [4]	TGI [4]	GI50 [5]	TGI [5]	GI50 [6]	TGI [6]	GI50 [7]	TGI [7]	GI50 [8]	TGI [8]	GI50 [9]	TGI [9]	GI50 [10]	TGI [10]
CC1(C)N=C(N)N=C(N)N1c1cccc(OCCOc2cccc([N+](=O)[O-])c2)c1	0.561 µM	> 100 µM	1.88 µM	> 100 µM	3.41 µM	> 100 µM	> 100 µM	> 100 µM	2.15 µM	> 100 µM	1.37 µM	> 100 µM	> 100 µM	> 100 µM	2.23 µM	> 100 µM	35.2 µM	> 100 µM	5.13 µM	> 100 µM
COc1cc2c3c(n(CCCN(C)CCO)c(=O)c2cc1OC)-c1cc2c(cc1C3=O)OCO2	9.49 µM	> 100 µM	51.7 µM	> 100 µM	2.89 µM	> 33.5 µM	0.277 µM	4.33 µM	0.709 µM	13.9 µM	11.4 µM	45.7 µM	3.41 µM	> 57.9 µM	> 28.3 µM	> 100 µM	27.4 µM	> 73.2 µM	35.9 µM	> 100 µM
Oc1ccc(/C=C/c2cc(O)cc3c2C(c2cc(O)cc(O)c2)C(c2ccc(O)c(O)c2)O3)cc1 (centres undefined)	–	> 100 µM	–	> 100 µM	–	> 100 µM	–	33.8 µM	–	> 100 µM	–	87.4 µM	–	> 100 µM	–	> 100 µM	–	> 100 µM	–	56.4 µM
CC(Cl)CN1c2ccccc2Sc2ccc(Cl)cc21 (centres undefined)	–	> 10 µM	–	> 10 µM	–	> 10 µM	–	> 10 µM	–	> 10 µM	–	> 10 µM	–	> 10 µM	–	> 10 µM	–	> 10 µM	–	> 10 µM
c1ccc2c(c1)c1ccccc1c1ccccc21	> 100 µM	> 100 µM	> 100 µM	> 100 µM	> 100 µM	> 100 µM	> 100 µM	> 100 µM	> 100 µM	> 100 µM	> 100 µM	> 100 µM	> 100 µM	> 100 µM	> 100 µM	> 100 µM	> 100 µM	> 100 µM	> 100 µM	> 100 µM
NCCCOc1cc2ccccc2cc1C(=O)NCCCOc1cc2ccccc2cc1C(=O)Nc1ccc(Cl)cc1O	0.198 µM	0.383 µM	1.09 µM	2.56 µM	1.05 µM	2.57 µM	0.387 µM	1.44 µM	0.436 µM	1.78 µM	0.288 µM	0.983 µM	0.355 µM	1.78 µM	0.183 µM	0.349 µM	0.24 µM	0.928 µM	1.81 µM	3.49 µM
CN1C(NNC(=O)c2cccnc2)=NS(=O)(=O)c2cc(Cl)ccc21	> 100 µM	> 100 µM	> 100 µM	> 100 µM	> 100 µM	> 100 µM	> 100 µM	> 100 µM	> 100 µM	> 100 µM	> 100 µM	> 100 µM	> 100 µM	> 100 µM	> 100 µM	> 100 µM	> 100 µM	> 100 µM	> 100 µM	> 100 µM
NC(=O)CNc1ccc([As]=[As]c2ccc(NCC(N)=O)cc2)cc1 (centres undefined)	23.5 µM	> 100 µM	4.42 µM	20.2 µM	2.8 µM	> 100 µM	11.6 µM	30.3 µM	6.03 µM	23.8 µM	13.7 µM	33.2 µM	8.21 µM	24.5 µM	2.12 µM	15.2 µM	3.04 µM	16.4 µM	2.1 µM	6.14 µM
Cc1sc2c(c1C)C(c1ccc(Cl)cc1)=N[C@@H](CC(=O)Nc1ccc(OCCOCCOCCOCCNc3cccc4c3C(=O)N(C3CCC(=O)NC3=O)C4=O)cc1)c1nnc(C)n1-2 (some centres undefined)	0.338 µM	> 100 µM	< 0.0465 µM	> 100 µM	0.242 µM	> 100 µM	0.753 µM	> 100 µM	0.234 µM	19.1 µM	–	> 100 µM	0.28 µM	> 100 µM	< 0.0166 µM	> 100 µM	0.803 µM	48.5 µM	0.551 µM	> 100 µM
C=C(C)[C@@H]1CC[C@]2(C)[C@H](CC[C@@H]3[C@@H]([C@@](C)(O)CCC=C(C)C)CC[C@]32C)[C@@]1(C)CCC(=O)O	23.3 µM	91.9 µM	17.6 µM	34.2 µM	16 µM	29.9 µM	21.7 µM	54.3 µM	17.9 µM	31.8 µM	16.3 µM	32.4 µM	15.7 µM	29.4 µM	19.7 µM	49.3 µM	14.3 µM	28.6 µM	15.9 µM	29.8 µM
Cn1c(=S)c2[nH]c(SCCCc3ccccc3)nc2n(C)c1=O	–	72 µM	–	93.3 µM	–	> 100 µM	–	> 100 µM	–	> 100 µM	–	> 100 µM	–	64.4 µM	–	> 100 µM	–	> 100 µM	–	> 100 µM
COC(=O)C(=O)CC(=O)c1cccc(OC)c1	–	> 100 µM	–	> 100 µM	–	> 100 µM	–	> 100 µM	–	> 100 µM	–	> 100 µM	–	> 100 µM	–	> 100 µM	–	> 100 µM	–	> 100 µM
COc1cc(OC)c2sc(-c3ccc(-n4cncc4-c4cc(OC)c(OC)c(OC)c4)cc3)nc2c1	6.16 µM	> 100 µM	> 100 µM	> 100 µM	8.59 µM	> 100 µM	6.67 µM	> 100 µM	5.4 µM	> 100 µM	4.62 µM	> 100 µM	2.27 µM	> 100 µM	3.88 µM	> 100 µM	2.8 µM	> 100 µM	3.26 µM	> 100 µM

— PubChem BioAssay (NCI)
